Assay: method code SF-AS, from PMID: 4083029
Conditions: pH 5.0

| SMILES | logD |
| --- | --- |
| O=c1c2c(nc3ccccn13)CCCCCC2 | 2.29 |
| Cc1cccc2nc3c(c(=O)n12)CCCCC3 | 1.91 |
| O=c1c2c(nc3n1CCCCCC3)CCCCC2 | 2.43 |
| O=c1c2c(nc3n1CCCCC3)CCCCCC2 | 2.41 |
| O=c1c2c(nc3n1CCCCCC3)CCCC2 | 2.13 |
| O=c1c2ccccc2nc2n1CCCC2 | 1.49 |
| O=c1c2c(nc3n1CCCC3)CCCCC2 | 1.6 |
| Cc1ccc2nc3c(c(=O)n2c1)CCCCC3 | 2.07 |
| O=c1c2c(nc3ccccn13)CCCCC2 | 1.63 |
| O=c1c2c(nc3n1CCCCCC3)CCC2 | 1.61 |
| Cc1cccc2nc3n(c(=O)c12)CCC3 | 1.59 |
| Cc1ccn2c(=O)c3c(nc2c1)CCCCC3 | 1.86 |
| Cc1ccc2c(=O)n3c(nc2c1)CCCCC3 | 2.44 |

— the SangsterLogP compilation
